We go through five compounds from patent publication US4002615A, “Terpenoid compounds of substituted hydroxyalkyl-pyridines having juvenile hormone activity” (A/S Cheminova, priority 1974, dated 1977).

Common to all, as to assay type: in vivo
The subject of test [1] is Culex pipiens L. Put plainly: Culex test (mature larvae, loss of 50% of test animals). The conditions noted are these: concentration producing loss of 50% of test animals, mixtures of isomers, read-out: IC-50 eclos. On the procedure: (§1) The biological tests are examplified by tests on Tenebrio molitor L, Galleria mellonella L. and Culex pipiens L.
The compounds are tested on mature larvae. The concentration (IC-50 eclos.) is given in ppm.

Test [2] has as its system Galleria mellonella L. Nature of the test: Galleria test (eggs on impregnated filter paper, prevention of eclosion). The conditions noted are these: amount preventing eclosion of 50% of the eggs, mixtures of isomers. On the procedure:
as §1
The test is performed on eggs deposited on impregnated filter paper by the mother moth. The data given in table 2, are the amount necessary for preventing eclosion of 50% of the eggs. The amount (IC-50 eclos.) is given in mg./65 cm^2.

The subject of test [3] is Tenebrio molitor L. Put plainly: Tenebrio test (topical application to pupae, inhibition of adult characters). The settings on record: topical in acetone to abdomen of 0.5 to 2 hours old pupae; 27° C, 70% RH; mixtures of isomers. Here is the method:
as §1
The material in question is applied topically to the abdomen of 0.5 to 2 hours old pupae of the said species, as a solution in acetone. The pupae are held at 27° C and 70% RH, ecdysis occuring 5 to 7 days later. The degree of inhibition of adult characters is referred to an arbitrary scale, where a morphologically perfect adult is given the character 0%, and a perfect second pupae 100%.

Values after ≈ are worked out from the molar mass of the structure shown. A value given as a limit tells only on which side of the number the result lay.

As for `CC(C)=CCCC(C)=CCOCc1ccccn1` [Compound 1, 3,7-dimethyl-2,6-octadien-1-yl-(2-pyridyl)methylether], the LC50 in test [1] amounted to 5 µg/mL (≈ 20.4 µM).

Consider `CC(C)=CCCC(C)=CCOCc1ccncc1` [Compound 3, 3,7-dimethyl-2,6-octadien-1-yl-(4-pyridyl)methylether], for which, in test [1], the LC50 was over 10 µg/mL.

With `CC(=CCOCc1ccccn1)CCC1OC1(C)C` (stereo not shown) [Compound 4, 6,7-epoxy-3,7-dimethyl-2-octen-1-yl-(2-pyridyl)methylether], in test [1], the LC50 was 9 µg/mL (≈ 34.4 µM).

As for `CCc1ccc(COCC=C(C)CCC2OC2(C)C)nc1` (stereo not shown) [Compound 6, 6,7-epoxy-3,7-dimethyl-2-octen-1-yl-(5-ethyl-2-pyridyl)methylether], the LC50 in test [1] was 0.005 µg/mL (≈ 0.0173 µM).

Regarding `CC(C)=CCCC(C)=CCOCc1cccc(C)n1` [Compound 8, 3,7-dimethyl-2,6-octadien-1-yl-(6-methyl-2-pyridyl)methylether], in test [1], the LC50 came to 10 µg/mL (≈ 38.6 µM). Moreover, the IC-50 eclos. in test [2] is reported as over 10 mg/65 cm^2. Further, in test [3], the ID-50 morph. worked out at 4 μg/pupa.
